From patent publication US20250360130A1, “METHODS OF TREATING INDOLENT SYSTEMIC MASTOCYTOSIS” (Telios Pharma Inc., priority 2024, published 2025)

Legend:
human mast cells [1] = test: Antigen-induced cytokine production in ISM-like and healthy mast cells; format: cell-based; conditions: two hours treatment, antigen four hours
Procedure: (§1) Human mast cells were derived from bone marrow CD34+ cells from six healthy donors for up to eight weeks by culturing CD34+ cells in StemSpan SFEM II (Stem Cell Technologies) supplemented with stem cell factor (SCF; 100 ng/mL; R&D System), IL-6 (R&D Systems), IL-3 (R&D Systems) and 1% penicillin/streptomycin (P/S; Gibco) for the first 10 days and in StemSpan SFEM II supplemented with SCF and IL-6 and 1% P/S for the remaining time in culture. […] Supernatant was collected and histamine levels were measured using a Histamine ELISA kit (Eagle Biosciences). […] Percent of activated mast cells was calculated as number of activated mast cells over the total number of mast cells.
Human mast cells were differentiated from bone marrow CD34+ cells from two healthy donors, cultured and sensitized in ISM-like and healthy mast cell conditions as set forth in Example 4, treated with Compound 128 for two hours and stimulated with antigen for four hours. Supernatant was collected and cytokine levels were measured using the BD Cytometric Bead Array (CBA) human soluble protein master buffer kit (Becton Dickinson) and BD CBA human soluble protein flex sets for IL-8, MCP-1, MIP-1a, IL-13 and IL-10 (Becton Dickinson). […]

ISM-like mast cells = test: Antigen-induced degranulation (CD63 and histamine) in ISM-like mast cells; format: cell-based, human; conditions: ISM-like (+SCF) mast cells, two hours treatment prior to stimulation
Procedure: as §1
Human mast cells were differentiated from bone marrow CD34+ cells from six healthy donors, cultured and sensitized as set forth in Example 4. […] The median fluorescence intensity of phosphorylated BTK was measured. CD63 and histamine levels in these cells were measured and percent activated mast cells were calculated as set forth in Example 4. The percent of stimulated control for pBTK, activated mast cells (CD63+) and histamine levels was calculated. […]

basophils = test: Anti-IgE induced IL-4 production from basophils in whole blood; format: cell-based, human; conditions: whole blood from a healthy donor, two hours treatment, anti-IgE six hours
Procedure: Human mast cells lines, ROSA with wildtype KIT and ROSA […] with D816V KIT mutation (ISM-like cells), were licensed from CRNS Innovation and cultured with or without stem cell factor (100 ng/ml), respectively (FIG. 12A). ROSA cells were stimulated with IL-4 (20 ng/ml; R&D Systems) for 18 hours, stained for FcεRIα (Becton Dickinson) for 30 minutes on ice, washed twice with FACS buffer and data was acquired on a flow cytometer. The median fluorescence intensity of FcεRIα was measured. […] Whole blood from a healthy donor was treated with Compound 128 for two hours and the basophils were stimulated with anti-IgE (1 μg/mL; Beckman Coulter) for six hours (FIG. 12B). Plasma was collected and IL-4 levels were measured using the BD CBA human soluble protein master buffer kit and BD CBA human soluble protein flex set for IL-4 (Becton Dickinson). A four-parameter logistic regression analysis was performed on the cytokine levels to determine the EC50 and EC90. […] Therefore, Compound 128 may indirectly effect FcεRI expression by the reduction of IL-4 levels.

human mast cells [2] = test: Calcium flux assay in antigen-stimulated human mast cells; format: cell-based; conditions: 2 hours treatment, NP-BSA stimulation
Procedure: as §1
Compound 128 Inhibits Calcium Signaling in Human Mast Cells. […] The median fluorescence intensity of cytosolic calcium was measured across the stimulation time period and graphed to represent the calcium influx profile. The area under the curve (AUC) of the calcium influx profile was calculated and normalized as a percent of stimulated control. […]

BTK = BTK (Homo sapiens, UniProt Q06187); test: BTK phosphorylation in mast cells (FIG. 19); format: cell-based; parameters: endogenous in cells; conditions: correlating with calcium signaling, CD63, CD203c, histamine release
Sequence of BTK (Q06187 whole entry): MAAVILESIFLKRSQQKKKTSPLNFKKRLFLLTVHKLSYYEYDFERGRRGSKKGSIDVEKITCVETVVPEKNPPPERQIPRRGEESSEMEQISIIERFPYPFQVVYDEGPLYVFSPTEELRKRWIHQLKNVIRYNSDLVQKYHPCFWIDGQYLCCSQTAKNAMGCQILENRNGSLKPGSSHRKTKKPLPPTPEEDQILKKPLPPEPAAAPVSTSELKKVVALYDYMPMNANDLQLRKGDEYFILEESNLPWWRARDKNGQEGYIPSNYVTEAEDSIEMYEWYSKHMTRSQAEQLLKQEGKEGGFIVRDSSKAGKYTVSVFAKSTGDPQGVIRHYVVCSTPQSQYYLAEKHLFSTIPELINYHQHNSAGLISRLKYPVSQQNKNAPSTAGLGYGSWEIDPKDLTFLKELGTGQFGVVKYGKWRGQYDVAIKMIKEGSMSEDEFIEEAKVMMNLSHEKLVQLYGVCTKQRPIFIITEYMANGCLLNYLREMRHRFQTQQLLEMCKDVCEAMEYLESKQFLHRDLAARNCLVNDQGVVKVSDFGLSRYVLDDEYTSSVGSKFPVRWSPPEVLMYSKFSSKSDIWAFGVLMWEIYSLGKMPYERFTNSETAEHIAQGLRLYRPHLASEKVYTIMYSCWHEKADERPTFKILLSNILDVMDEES

[3] = system: healthy mast cells and ISM mast cells; test: Potency across healthy mast cells and ISM mast cells (FIG. 16); format: cell-based, human; conditions: presence of SCF, NP-IgE sensitization, NP-BSA stimulation
Procedure: Healthy BM-MC donor 0166 and ISM WB-MC 1061-004 17 Jan. 2024 and 17 Oct. 2024. Experiments performed in the presence of SCF. Sensitization and Stimulation: NP-IgE (100 ng/ml) 18 hrs, NP-BSA (0.5 ng/ml) for 15 min at 37° C. (CD63, CD203, pBTK and histamine) or 4 min at RT (Calcium Flux).

## C=CC(=O)N1CCC(F)(CNc2ncnc(N)c2-c2ccc(Oc3ccccc3)cc2)CC1 [Compound 128, 1-(4-(((6-amino-5-(4-phenoxyphenyl)pyrimidin-4-yl)amino)methyl)-4-fluoropiperidin-1-yl)prop-2-en-1-one]
Human mast cells [1]
  IgE-mediated cytokine production (IL-8, MCP-1, MIP-1a, IL-13, IL-10): inhibited
ISM-like mast cells
  IgE-mediated degranulation (CD63 and histamine): potently inhibits
basophils
  IgE-mediated IL-4 production: potently inhibited
Human mast cells [2]; ISM-like (+SCF) mast cells
  calcium influx, percent of stimulated control: less than 7%
Human mast cells [2]; healthy (−SCF) mast cells
  calcium influx, percent of stimulated control: < 3%
BTK
  inhibition of BTK phosphorylation in mast cells: high potency
[3]
  potency in healthy versus ISM mast cells (CD63, CD203, pBTK, histamine, calcium flux): equipotent
